# Entries after “also recorded” stand apart in the source; their conditions may differ.
# Tests used:
# Thioredoxin Reductase = target: T1, Thioredoxin Reductase (Bos taurus, UniProt O62768); assay: NADPH oxidation at 340 nm, thioredoxin reductase only; type: biochemical, bovine
# T1 sequence (O62768 1-499): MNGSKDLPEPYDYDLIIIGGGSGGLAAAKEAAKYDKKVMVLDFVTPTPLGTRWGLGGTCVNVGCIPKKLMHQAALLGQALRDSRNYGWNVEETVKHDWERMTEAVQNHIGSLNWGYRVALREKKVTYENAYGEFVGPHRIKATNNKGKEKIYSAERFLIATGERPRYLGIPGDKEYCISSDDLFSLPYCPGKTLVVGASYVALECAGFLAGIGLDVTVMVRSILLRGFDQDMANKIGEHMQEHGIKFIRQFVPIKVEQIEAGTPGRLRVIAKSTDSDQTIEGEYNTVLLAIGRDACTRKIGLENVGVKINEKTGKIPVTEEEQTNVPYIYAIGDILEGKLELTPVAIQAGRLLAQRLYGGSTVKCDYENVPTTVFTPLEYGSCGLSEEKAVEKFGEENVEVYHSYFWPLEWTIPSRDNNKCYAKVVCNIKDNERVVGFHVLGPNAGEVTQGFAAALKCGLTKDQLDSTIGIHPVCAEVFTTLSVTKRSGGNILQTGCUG
# Experimental: Biochemistry 21:6628-6633 (1982).
# Data was then collected and plotted in Microsoft Excel. Error calculations, and graphical representations were performed in Microsoft Excel and Kaleidograph (ver. 3.5). Nonlinear data was graphically rendered using Kaleidograph. ANOVA and other statistical analyses were performed using SAS (ver. 8.2). Unless otherwise noted, significance level was set at 0.05, and error bars represent actual experimental standard deviation.
# It should be noted that for the purposes of FIG. 17 only, thioredoxin is labeled TXR and thioredoxin reductase is labeled TRR.
# GR + GSH = target: T2, GR + GSH (Homo sapiens, UniProt P00390); assay: NADPH oxidation, GR + GSH; type: biochemical; details: Disulfide 0.5 mM; n = 6
# T2 sequence (P00390 44-522): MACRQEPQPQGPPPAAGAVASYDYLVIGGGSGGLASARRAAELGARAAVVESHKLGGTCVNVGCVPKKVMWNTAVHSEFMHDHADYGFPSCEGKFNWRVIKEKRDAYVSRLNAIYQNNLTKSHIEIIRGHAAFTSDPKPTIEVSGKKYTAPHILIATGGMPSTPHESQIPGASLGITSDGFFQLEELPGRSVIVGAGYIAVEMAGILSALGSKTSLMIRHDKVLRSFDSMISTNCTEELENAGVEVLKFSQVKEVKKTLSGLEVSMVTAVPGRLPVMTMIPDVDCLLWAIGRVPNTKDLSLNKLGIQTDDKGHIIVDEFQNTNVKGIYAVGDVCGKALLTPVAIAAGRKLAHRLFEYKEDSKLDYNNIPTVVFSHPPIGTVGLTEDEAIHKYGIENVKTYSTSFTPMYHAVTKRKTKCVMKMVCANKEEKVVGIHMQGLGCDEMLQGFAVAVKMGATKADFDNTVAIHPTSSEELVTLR
# Experimental: (§1) The Formula (I) compound was utilized at a concentration of 0.5 mM.
# [1] = target: T3, GR + GRX + GSH (coupled glutaredoxin/glutathione/glutathione reductase system) (Homo sapiens, UniProt P35754); assay: NADPH oxidation, coupled GRX/GSH/GR system; type: biochemical
# T3 sequence (P35754 1-106): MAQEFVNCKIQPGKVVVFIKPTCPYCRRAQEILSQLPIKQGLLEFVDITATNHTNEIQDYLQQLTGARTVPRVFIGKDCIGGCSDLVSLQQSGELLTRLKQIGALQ
# Experimental: as §1
# whole cells = assay: whole cell mediated disulfide reduction (α-lipoic acid, hydroxyethyldisulfide); type: cell-based; details: treatments with paclitaxel, cisplatin and Tavocept
# [2] = tested on: human breast, ovarian and lymphoma cancer cell lines; assay: interference with paclitaxel induced apoptosis (PARP cleavage, Bcl-2 phosphorylation, DNA laddering); type: cell-based; details: in vitro
# Description: (§2) An important element of Tavocept's™ effectiveness as a compound in the treatment of cancer is its selectivity for normal cells versus cancer cells and its inability to interfere with the anti-cancer activity of chemotherapeutic agents.
# human cancer cell lines = assay: interference with paclitaxel and platinum induced cytotoxicity; type: cell-based
# Description: as §2
# [3] = tested on: non-small cell lung carcinoma (NSCLC) cell lines; assay: cytotoxicity study in combination with chemotherapeutic agents, NSCLC cell lines; type: cell-based, human; details: Tavocept in combination with cisplatin vs cisplatin only controls
# [4] = tested on: patients with advanced non-small cell lung carcinoma (NSCLC), including the adenocarcinoma sub-type; assay: Japan Phase III Clinical Trial (paclitaxel + cisplatin with Tavocept or placebo); type: in vivo, human
# Experimental: Patients admitted into the trial included those patients without previous treatment (excluding surgical treatment, administration of Picibanil into the serous membrane, irradiation of 30% or less hematopoietic bone, or oral chemotherapeutic agents within 3 months of entry in the trial).
# The Japan Phase III Clinical Trial was conducted as a double-blind study because peripheral neuropathy is diagnosed based on subjective symptoms evaluated through clinical interviews, lab tests, and the like. Accordingly, evaluations by both physicians and patients are highly important. […] A placebo was used as control since there is no established therapy or drug for preventing peripheral neuropathy. Because the severity of peripheral neuropathy is evaluated based on patient's reports (i.e., subjective symptoms), the Peripheral Neuropathy Questionnaire (PNQ©) was used in primary evaluation. CIPN-20 and NCI-CTC were used in secondary evaluation. The incidence and severity of adverse reactions, time to their onset, etc. and the like, were compared between patients treated with Tavocept™ and those given a placebo using the aforementioned methods.
# [5] = tested on: patients with advanced stage (IIIB/IV) non-small cell lung carcinoma (NSCLC), including the adenocarcinoma sub-type; assay: U.S. Phase II NSCLC Clinical Trial (dose-dense docetaxel + cisplatin with or without Tavocept); type: in vivo, human
# Experimental: Darbepoetin alfa (200 μg; subcutaneous administration) was administered on day one of the chemotherapy cycle and pegfilgrastim (6 mg subcutaneous administration) was administered on day two of the chemotherapy cycle if the patient's hemoglobin levels were ≦11 g/dL. The aforementioned chemotherapy cycle was repeated every two weeks, for up to a total of six cycles.
# [6] = FIG. 7, Tavocept arm (5 in the placebo arm)
# [7] = adenocarcinoma patients in the Tavocept arm
# [8] = FIG. 13, Tavocept arm versus non-Tavocept arm
# [9] = FIG. 14, adenocarcinoma patients, Tavocept vs non-Tavocept arm
# [10] = FIG. 15, Tavocept arm versus non-Tavocept arm
smiles,measurement,setting,value
"O=S(=O)([O-])CCSSCCS(=O)(=O)[O-].[Na+].[Na+] [Tavocept™, disodium 2,2′-dithio-bis-ethane sulfonate]","NADPH Oxidation, Thioredoxin Reductase only","Thioredoxin Reductase; Disulfide 0.5 mM, minimum of triplicate assays",0.3 ± 0.01 nmol/min/mL
same,NADPH oxidation by TXR in the absence of TX,Thioredoxin Reductase; FIG. 17,indistinguishable from background
same,substrate for thioredoxin reductase alone,Thioredoxin Reductase; result in words,not thioredoxin reductase alone; also recorded: not for TXR
same,"NADPH Oxidation, GR + GSH",GR + GSH,2.9 ± 1.6 nmol/min/mL
same,"NADPH Oxidation, GR + GRX + GSH","[1]; Disulfide 0.5 mM, n = 6",15.3 ± 1.0 nmol/min/mL
same,substrate-like activity with glutaredoxin / alternative substrate inhibitor for the coupled GRX/GSH/GR system,"[1]; in the presence of reduced glutathione and glutathione reductase, result in words",exhibits substrate-like activity
same,whole cell mediated disulfide reduction,whole cells,declined
same,interference with paclitaxel induced apoptosis,[2],does not interfere
same,interference with paclitaxel and platinum induced cytotoxicity,human cancer cell lines,did not interfere
same,cell death,[3],increase in cell death
same,"reduction in severe (Grade D or E) peripheral neuropathy (PNQ, Primary Endpoint)","[4]; FIG. 5, paclitaxel/Tavocept/cisplatin regimen vs paclitaxel/saline placebo/cisplatin regimen, NSCLC patients",~50%
same,patients with Grade 3 (severe) decrease in hematocrit levels,[4]; [6],1 patients
same,patients with Grade 3 (severe) decrease in red blood cell levels,[4]; [6],1 patients
same,patients with Grade 3 (severe) decrease in hemoglobin,"[4]; FIG. 7, Tavocept arm (8 in the placebo arm)",2 patients
same,response rate as measured by the IRC,"[4]; FIG. 8, Tavocept arm (28.6% in the placebo arm)",33.3%
same,"Response Rate, as measured by physicians (Doctor)","[4]; FIG. 8, Tavocept arm (33.0% in the placebo arm)",41.9%
same,increase in median survival time,"[4]; FIG. 9, NSCLC patients incl. adenocarcinoma, paclitaxel/Tavocept/cisplatin vs paclitaxel/saline placebo/cisplatin",up to 40 days
same,"survival period, female patient population","[4]; FIG. 10, female NSCLC patients, paclitaxel/Tavocept/cisplatin vs paclitaxel/saline placebo/cisplatin",longer survival period
same,"increase in median survival time, adenocarcinoma patients","[4]; FIG. 11, adenocarcinoma sub-type, paclitaxel/Tavocept/cisplatin vs paclitaxel/saline placebo/cisplatin",up to 138 days
same,"increase in median survival time, adenocarcinoma patients","[4]; FIG. 11, adenocarcinoma sub-type, paclitaxel/Tavocept/cisplatin vs paclitaxel/saline placebo/cisplatin, listed as Tavocept",approximately 138 days
same,chemotherapy-induced vomiting/emesis and kidney damage,"[4]; Tavocept and chemotherapy vs chemotherapy and placebo, result in words",medically-important reductions
same,"increase in median survival time, adenocarcinoma patients",[4]; [7],~4.5 months
same,median patient survival (time to death),"[5]; FIG. 12, NSCLC incl. adenocarcinoma, Tavocept arm (10.74 months non-Tavocept arm), 95% confidence limit",11.66 months
same,"hazard ratio, survival","[5]; FIG. 12, NSCLC incl. adenocarcinoma, Tavocept vs non-Tavocept arm",0.750
same,increase in patient survival,"[5]; FIG. 12, NSCLC, Tavocept arm versus non-Tavocept arm",0.92 month
same,patient progression-free survival (PFS),"[5]; FIG. 13, Tavocept arm (9.25% non-Tavocept arm), 95% confidence interval",18.7%
same,overall patient one-year survival (OS) rate,"[5]; FIG. 13, Tavocept arm (39.5% non-Tavocept arm), 95% confidence interval",50.7%
same,increase in overall patient one-year survival (OS) rates,[5]; [8],11.2%
same,increase in patient progression-free survival (PFS),[5]; [8],9.5%
same,"median patient survival (time to death), adenocarcinoma","[5]; FIG. 14, adenocarcinoma patients, Tavocept arm (9.10 months non-Tavocept arm), 95% confidence limit",15.64 months
same,"increase in patient survival, adenocarcinoma","[5]; FIG. 14, adenocarcinoma patients, Tavocept arm versus non-Tavocept arm",6.54 months
same,"increase in patient survival, adenocarcinoma","[5]; FIG. 14, adenocarcinoma patients, Tavocept arm versus non-Tavocept arm, listed as Tavocept",~6.5 months
same,"hazard ratio, survival, adenocarcinoma",[5]; [9],0.601
same,"reduction in the patient mortality rate, adenocarcinoma",[5]; [9],40%
same,reduction in dehydration (Grade 3 and Grade 4 treatment-related adverse events),[5]; [10],50%
same,reduction in hypomagnesaemia (Grade 3 and Grade 4 treatment-related adverse events),[5]; [10],100%
same,reduction in nausea (Grade 3 and Grade 4 treatment-related adverse events),[5]; [10],38.5%
same,reduction in vomiting (Grade 3 and Grade 4 treatment-related adverse events),[5]; [10],71.5%
same,"increase in median survival time, adenocarcinoma patients",[5]; [7],approximately 198 days

# Source: US9320760B2, “Compositions and methods of use of compounds to increase cancer patient survival time” (BioNumerik Pharmaceuticals, Inc., priority 2008, dated 2016)
